Test results from ChEMBL document CHEMBL6071148, “Synthesis and biological evaluation of novel 3,6- amide and thioamide substituted- 2,3,4,9-tetrahydro-1H-carbazoles for anti-cancer activity” (Eur J Med Chem, 2024).
The source made the active and inactive calls. The calls are words filed in the database; no cut-off is given here.

Columns and labels:
[1] = system: Mitochondrial membrane; experiment: Disruption of mitochondrial membrane integrity in human A549 cells assessed as mitochondrial swelling by TEM analysis; type: cell membranes
[2] = system: MCF7; experiment: Cytotoxicity against human MCF7 cells assessed as inhibition of cell proliferation incubated for 72 hrs by MTT assay; type: functional, cell-based; details: MCF7, 72 h
[3] = system: A549; experiment: Cytotoxicity against human A549 cells assessed as inhibition of cell proliferation incubated for 72 hrs by MTT assay; type: functional, cell-based; details: A549, 72 h
[4] = system: HCT-116; experiment: Cytotoxicity against human HCT-116 cells assessed as inhibition of cell proliferation incubated for 72 hrs by MTT assay; type: functional, cell-based; details: HCT-116, 72 h
[5] = system: MCF7; experiment: Inhibition of colony formation in human MCF7 cells assessed as reduction in clonogenic capacity incubated for 24 hrs by crystal violet staining based analysis; type: functional, cell-based
[6] = system: A549; experiment: Inhibition of colony formation in human A549 cells assessed as reduction in clonogenic capacity incubated for 24 hrs by crystal violet staining based analysis; type: functional, cell-based
[7] = system: A549; experiment: Inhibition of cell adhesion in human A549 cells assessed as reduction in cell aggregates formation at IC50 incubated for 48 hrs by inverted phase contrast microscopic analysis; type: functional, cell-based
[8] = system: A549; experiment: Induction of cell cycle arrest in human A549 cells assessed as accumulation of cells at G1 phase at IC50 incubated for 24 hrs by PI staining based flow cytometric analysis (reference value: 37.40 +/- 2.40%); type: functional
[9] = system: A549; experiment: Induction of cell cycle arrest in human A549 cells assessed as accumulation of cells at G2 phase at IC50 incubated for 24 hrs by PI staining based flow cytometric analysis (reference value: 23.45 +/- 1.62%); type: functional
[10] = system: A549; experiment: Induction of cell cycle arrest in human A549 cells assessed as accumulation of cells at G1 phase at IC50 incubated for 48 hrs by PI staining based flow cytometric analysis (reference value: 53.5 +/- 4.01%); type: functional
[11] = system: MCF7; experiment: Induction of cell cycle arrest in human MCF7 cells assessed as accumulation of cells at G1 phase at IC50 incubated for 24 hrs by PI staining based flow cytometric analysis relative to control; type: functional
[12] = system: MCF7; experiment: Induction of cell cycle arrest in human MCF7 cells assessed as accumulation of cells at G2 phase at IC50 incubated for 24 hrs by PI staining based flow cytometric analysis relative to control; type: functional
[13] = system: A549; experiment: Induction of DNA damage in human A549 cells assessed as gammaH2AX positive cells at IC50 incubated for 48 hrs by PI staining based flow cytometric analysis (reference value: 4.90 +/- 0.50%); type: functional
[14] = system: Mitochondrial membrane; experiment: Induction of mitochondrial membrane depolarization in human A549 cells assessed as decrease in ratio of J-aggregates to J-monomer incubated for 24 hrs by JC-1 staining based flow cytometric analysis (reference value: 17.72 +/- 3.94%); type: cell membranes
[15] = system: Mitochondrial membrane; experiment: Induction of mitochondrial membrane depolarization in human A549 cells assessed as increase in mitochondrial fission by measuring appearance of shortened mitochondria by confocal microscopic analysis; type: cell membranes
[16] = system: Mitochondrial membrane; experiment: Induction of mitochondrial membrane depolarization in human MCF7 cells assessed as increase in mitochondrial fission by measuring appearance of shortened mitochondria by confocal microscopic analysis; type: cell membranes
[17] = system: Mitochondrial membrane; experiment: Induction of mitochondrial membrane depolarization in human A549 cells assessed as increase in mitochondrial fission by measuring appearance of spherical mitochondria by confocal microscopic analysis; type: cell membranes
[18] = system: Mitochondrial membrane; experiment: Induction of mitochondrial membrane depolarization in human MCF7 cells assessed as increase in mitochondrial fission by measuring appearance of spherical mitochondria by confocal microscopic analysis; type: cell membranes
[19] = system: Mitochondrial membrane; experiment: Induction of mitochondrial membrane depolarization in human A549 cells assessed as increase in mitochondrial fission by measuring appearance of circular mitochondria by confocal microscopic analysis; type: cell membranes
[20] = system: Mitochondrial membrane; experiment: Disruption of mitochondrial membrane integrity in human A549 cells assessed as change in mitochondrial size by TEM analysis; type: cell membranes
[21] = system: Mitochondrial membrane; experiment: Disruption of mitochondrial membrane integrity in human A549 cells assessed as change in mitochondrial shape by TEM analysis; type: cell membranes
[22] = system: Mitochondrial membrane; experiment: Disruption of mitochondrial membrane integrity in human MCF7 cells assessed as disruption of normal mitochondrial distribution by TEM analysis; type: cell membranes
[23] = system: Mitochondrial membrane; experiment: Disruption of mitochondrial membrane integrity in human A549 cells assessed as disruption of normal mitochondrial distribution by TEM analysis; type: cell membranes
[24] = system: Mitochondrial membrane; experiment: Disruption of mitochondrial membrane integrity in human A549 cells assessed as organization of mtDNA nucleoids within cells by TEM analysis; type: cell membranes
[25] = system: Mitochondrial membrane; experiment: Disruption of mitochondrial membrane integrity in human MCF7 cells assessed as organization of mtDNA nucleoids within cells by TEM analysis; type: cell membranes
[26] = system: Mitochondrial membrane; experiment: Disruption of mitochondrial membrane integrity in human A549 cells assessed as presence of large mitochondria by TEM analysis; type: cell membranes
[27] = system: Mitochondrial membrane; experiment: Disruption of mitochondrial membrane integrity in human A549 cells assessed as presence of bloated mitochondria by TEM analysis; type: cell membranes
[28] = system: Mitochondrial membrane; experiment: Disruption of mitochondrial membrane integrity in human MCF7 cells assessed as presence of bloated mitochondria by TEM analysis; type: cell membranes
[29] = system: Mitochondrial membrane; experiment: Disruption of mitochondrial membrane integrity in human A549 cells assessed as absence of well-developed cristae by TEM analysis; type: cell membranes
[30] = system: A549; experiment: Induction of apoptosis in human A549 cells assessed as apoptotic rate at IC50 incubated for 24 hrs by Annexin-V and 7-AAD staining based flow cytometric analysis (reference value: 4.56 +/- 0.81%); type: functional
[31] = system: A549; experiment: Induction of apoptosis in human A549 cells assessed as apoptotic rate at IC50 incubated for 48 hrs by Annexin-V and 7-AAD staining based flow cytometric analysis (reference value: 6.56 +/- 1.17%); type: functional
[32] = system: MCF7; experiment: Induction of apoptosis in human MCF7 cells assessed as increase in apoptotic cells incubated for 24 hrs by Annexin-V and 7-AAD staining based flow cytometric analysis (reference value: 5.70 +/- 1.56%); type: functional
[33] = system: MCF7; experiment: Induction of apoptosis in human MCF7 cells assessed as increase in apoptotic cells incubated for 48 hrs by Annexin-V and 7-AAD staining based flow cytometric analysis (reference value: 7.53 +/- 1.16%); type: functional
[34] = system: MCF7; experiment: Antitumor activity against human MCF7 cells xenografted in chicken embryo chorioallantoic membrane assessed as reduction in tumor size; type: functional, cell-based; details: dose 1.5-4.5 µM
[35] = system: A549; experiment: Antitumor activity against human A549 cells xenografted in chicken embryo chorioallantoic membrane assessed as necrosis at 1.5 to 4.5 uM by H and E staining based analysis; type: functional, cell-based; details: dose 1.5-4.5 µM
[36] = system: MCF7; experiment: Antitumor activity against human MCF7 cells xenografted in chicken embryo chorioallantoic membrane assessed as necrosis at 1.5 to 4.5 uM by H and E staining based analysis; type: functional, cell-based; details: dose 1.5-4.5 µM
[37] = system: A549; experiment: Antitumor activity against human A549 cells xenografted in chicken embryo chorioallantoic membrane assessed as change in nuclear morphology at 1.5 to 4.5 uM by H and E staining based analysis; type: functional, cell-based; details: dose 1.5-4.5 µM
[38] = system: MCF7; experiment: Antitumor activity against human MCF7 cells xenografted in chicken embryo chorioallantoic membrane assessed as change in nuclear morphology at 1.5 to 4.5 uM by H and E staining based analysis; type: functional, cell-based; details: dose 1.5-4.5 µM
[39] = system: Mitochondrial membrane; experiment: Disruption of mitochondrial membrane potential in human A549 cells assessed as translocation of cytochrome c to cytoplasm at IC50 incubated for 48 hrs by confocal microscopic analysis; type: cell membranes

CC(=S)NC1CCc2[nH]c3ccc(Br)cc3c2C1 (centres undefined)
Activity [1]: Active | IC50 [2]: 3.81 µM | IC50 [3]: 4.54 µM | IC50 [4]: 40 µM | inhibition [5]: Dose-Dependent Effect | inhibition [6]: Dose-Dependent Effect | inhibition [7]: Active | Activity [8]: 31.6% | Activity [9]: 14.3% | Activity [10]: 46.15% | Activity [11]: 33.7% | Activity [12]: 25.95% | Activity [13]: 11.98% | Activity [14]: 8.73 | Activity [15]: Active | Activity [16]: Active | Activity [17]: Active | Activity [18]: Active | Activity [19]: Active | Activity [20]: Active | Activity [21]: Active | Activity [22]: Active | Activity [23]: Active | Activity [24]: Active | Activity [25]: Active | Activity [26]: Active | Activity [27]: Active | Activity [28]: Active | Activity [29]: Active | Activity [30]: 20.75% | Activity [31]: 42.87% | Activity [32]: 10.8% | Activity [33]: 47.28% | Activity [34]: Dose-Dependent Effect | Activity [35]: Active | Activity [36]: Active | Activity [37]: Active | Activity [38]: Active | Activity [39]: Active
